Measurements: US9724366B2, “CD11 B[low] macrophages and conditioned media thereof for treating cancer and/or fibrosis” (CARMEL-HAIFA UNIVRSITY ECONOMIC CORPORATION LTD., priority 2012, dated 2017)

Key:
[1] = test system: macrophages recovered from peritoneal exudates; assay: Ex vivo macrophage switch to the CD11b^low phenotype by pro-resolving lipid mediators (flow cytometry); type: cell-based, mice; details: mediators 50 nM, Dex 25 μg/ml
Protocol: FIG. 8 show promotion of macrophage switch to the CD11b^low phenotype by pro-resolving lipid mediators. Macrophages were recovered from peritoneal exudates 72 hrs post peritonitis initiation and incubated overnight with vehicle (RPMI 10% FBS+0.05% ethanol), RvD1, RvD2, PD1, LXB4, or 15-epi-LXA4, (all at 50 nM), apoptotic cells (M/N ratio of 1:5), or Dex (25 μg/ml). Then, the cells were stained for CD11b and analyzed by flow cytometry, and the percentage of CD11b^low (A) and CD11b^high (B) macrophages was determined. Results are mean±SE of two experiments (n=2). #P<0.005, $ P<0.01, * P<0.05 compared to vehicle.
Macrophages were recovered from peritoneal exudates 72 hrs post peritonitis initiation and incubated overnight with either RPMI 10% FBS+0.05% ethanol, the resolvins RvD1 or RvD2, […] PD1 or lipoxins LXB4, or 15-epi-LXA4, (all at 50 nM), apoptotic cells (M/N ratio of 1:5), or Dex (25 μg/ml). After 20 hours, the cells were stained for CD11b and analyzed by flow cytometry.

[2] = test system: peritonitis-affected mice; assay: Murine zymosan A peritonitis, RvD1, RvE1 or Dex introduced into the peritoneum; type: in vivo; details: for appearance of CD11b^low macrophages in peritoneal exudates, increases over vehicle treatment: RvD1, RvE1 100 ng/mouse, Dex 25 mg/mouse into peritoneum 48 h after peritonitis initiation, exudates at 66 h; for neutrophil numbers: peritoneal exudates
Protocol: Male C57BL/6 mice (6-8 wk) were injected intraperitionealy (I.P) with zymosan A (1 mg). 66 hours post zymosan A injection, the mice were euthanized by CO2, their peritoneal cavity was lavaged with 5 ml of phosphate buffered saline (PBS) and the peritoneal exudates were collected by centrifugation for further analysis and experimentation.
Peritoneal exudates were collected and exudate cells were stained with FITC-conjugated rat anti-mouse Ly-6G, PE-conjugated rat anti-mouse F4/80, and PerCP-conjugated rat anti-mouse CD11b (Biolegend) and analyzed by FACSCalibur (Beckton-Dickinson). Macrophages were isolated using EasySep PE selection magnetic beads following the manufacturer's instructions (StemCell Technologies).
In some experiments, the macrophages were sorted to CD11b^high and CD11b^low populations of >95% purity, using FACSaria (Beckton-Dickinson), and the separate populations were used for microscopic analysis and for ex vivo stimulation. In some experiments, PKH2-PCL green (0.25 mM, 0.5 mL) was injected I.P at 48 h and peritoneal cells were recovered 4 h later, immunostained for F4/80 and CD11b as above and analyzed for fluorescence intensity of different macrophage populations. In relevant experiments, vehicle, RvD1, RvE1 (100 ng/mouse each), or Dex (25 mg/mouse) were introduced to the peritoneum 48 h after peritonitis initiation, and the exudates were recovered after 66 h and analyzed as before.
Exudate cells or sorted CD11b^high and CD11b^low macrophages were stained with Hoechst, and enumerated under a fluorescent microscope (Zeiss). Two areas of two cover slips, each containing at least 50 (overall 200) macrophages were analyzed, and the average number of PMN engulfed per macrophage as well as the number of macrophages with cutoff numbers of engulfed PMN, were calculated.
Similar properties were attributed to glucocorticoids, such as dexamethasone (Dex), that inhibit leukocyte infiltration to inflammation sites and promote the clearance of apoptotic PMN by macrophages. To determine whether pro-resolving mediators regulate emergence of CD11b^low macrophages and thereby promote resolution, RvD1, RvE1, or Dex were introduced into peritonitis-affected mice, and the recovered leukocytes were collected and analyzed for macrophage and neutrophil numbers, macrophage CD11b expression, engulfment of PMN, and responsiveness to LPS. The results are presented in FIG. 8 of Schif-Zuck et al., 2011, which is incorporated herein by reference. […] In addition, RvD1, RvE1 and Dex enhanced the appearance of CD11b^low macrophages (32.8±8.8%, 46.2±1.8%, and 39.9±4.6% increases over vehicle treatment, for RvD1, RvE1, and Dex, respectively) in peritoneal exudates. […] To determine whether RvD1, RvE1, and Dex regulate apoptotic PMN engulfment by macrophages during resolution, exudate cells were enumerated for PMN engulfment and analyzed as in FIG. 2.

[3] = test system: macrophages; assay: Cytokine secretion (ELISA) of macrophages from treated mice, unstimulated or activated with LPS; type: cell-based; details: unstimulated and LPS-stimulated macrophages
Protocol: Exudate macrophages were sorted or separated using PE selection magnetic beads (StemCell Technologies) and incubated (1×10^6 cells in 0.5 mL of culture media) with LPS (0-1000 ng/mL), poly (I:C) (4 μg/mL), or CpG-ODN (1 μM). After 16 h, the supernatants were collected and their TNF-α, IL-β, IL-10, TGFβ, CCL2, CCL3, and CCL5 contents were determined by standard ELISA.
To validate the improvement in immune-silencing of macrophages that followed treatment with RvD1, RvE1 and Dex, macrophages were activated with LPS, and cytokine secretion was determined. […] Thus, treatment with RvD1, RvE1, and Dex, promoted macrophage immune-silencing, as well as the secretion of pro-resolving cytokines from these cells.

[4] = test system: MEFs; assay: Apoptosis detection in MEFs by TUNEL; type: cell-based, mouse; details: 1.5 μg/ml, 4 hours, positive control
Protocol: MEF cell line were cultured as described above in 8 well chamber glass slides, fixed with 4% PFA containing 5% sucrose and incubated for 1 hour with a mixture of TUNEL reaction mix according to the manufacturer's protocol (In Situ Cell death Detection Kit; TMR Red) covered with aluminum foil and placed in the 37° C., 5% CO2 incubator for 1 hour. Next, the slides were washed three times with PBS for 15 minutes each, and mounted with VECTASHIELD mounting medium with DAPI. The slides were imaged using a Nikon A1-R confocal laser scanning microscope (University of Haifa, Haifa, Israel).
3 images were captured from each well. Each captured frame was analyzed using NIS-Elements AR software to measure in the defined area the number of cells with positive DAPI staining, co-staining for DAPI and TUNEL (selected cells were larger than 8 μm), or Col-I expression by measuring sum intensity of area stained for Col-I per captured field.
Next we explored whether the inhibition of MEF proliferation by the CM-Mres was due to cell cycle arrest or increase in apoptosis of MEF. Therefore, we tested apoptosis of the MEFs at 48 hours. Therefore, MEFs were either untreated or were induced to differentiate on 8 chamber glass slides and were pre-incubated with CM-Mres 1 hour prior to adding TGFβ1. […] The cells were fixed and evaluated for apoptotic death by TUNEL staining. […]

## CCCCC[C@@H](O)/C=C/C=C\C=C\C=C\[C@@H](O)[C@@H](O)CCCC(=O)O [15-epi-LXA4]
[1]
  macrophage switch to the CD11b^low phenotype: promotes macrophage switch

## C[C@@H]1C[C@H]2[C@@H]3CCC4=CC(=O)C=C[C@]4(C)[C@@]3(F)[C@@H](O)C[C@]2(C)[C@@]1(O)C(=O)CO [Dex, dexamethasone]
[2]
  appearance of CD11b^low macrophages in peritoneal exudates, increases over vehicle treatment: 39.9±4.6%

## CCCCC[C@H](O)[C@H](O)/C=C/C=C/C=C\C=C\[C@@H](O)CCCC(=O)O [LXB4]
[1]
  macrophage switch to the CD11b^low phenotype: promotes macrophage switch

## CC/C=C\C[C@H](O)\C=C/C=C/C=C/[C@H](O)C/C=C\C/C=C\CCC(=O)O [PD1]
[1]
  macrophage switch to the CD11b^low phenotype: promotes macrophage switch

## CC/C=C\C[C@H](O)/C=C/C=C\C=C\C=C\[C@@H](O)[C@@H](O)C/C=C\CCC(=O)O [RvD1, 7S,8R,17S-trihydroxy-4Z,9E,11E,13Z,15E,19Z-docosahexaenoic acid]
[1]
  macrophage switch to the CD11b^low phenotype: promotes macrophage switch
[3]
  secretion of TNFα: inhibited
[2]
  appearance of CD11b^low macrophages in peritoneal exudates, increases over vehicle treatment: 32.8±8.8%
  neutrophil numbers: induced a reduction
[2]; mouse, in vivo
  CD11b expression on CD11b^high macrophages: reduced
  number of macrophages in peritoneal cavities: reduced
  numbers of apoptotic PMN engulfed by macrophages present in the peritoneum: reduced

## CC/C=C\C[C@H](O)[C@H](O)/C=C/C=C/C=C\C=C\[C@@H](O)C/C=C\CCC(=O)O [RvD2]
[1]
  macrophage switch to the CD11b^low phenotype: promotes macrophage switch

## CC[C@@H](O)/C=C/C=C\C[C@@H](O)/C=C/C=C/C=C\[C@@H](O)CCCC(=O)O [RvE1, 5S,12R,18R-trihydroxy-4Z,8E,10E,14Z,16E-eico sapentaenoic acid]
[3]
  secretion of TNFα: inhibited
[2]
  appearance of CD11b^low macrophages in peritoneal exudates, increases over vehicle treatment: 46.2±1.8%
  neutrophil numbers: induced a reduction
[2]; mouse, in vivo
  CD11b expression on CD11b^high macrophages: reduced
  appearance in the peritoneum of low-engulfing macrophages (less than 2 N/M): induced

## CN[C@@H]1C[C@H]2O[C@@](C)([C@@H]1OC)n1c3ccccc3c3c4c(c5c6ccccc6n2c5c31)C(=O)NC4 [staurosporine]
[4]
  percentage of apoptotic cells (TUNEL): no significant changes
